Experimental findings from patent US20040053972A1, “Medicinal compositions having improved absorbability” (priority 2000, published 2004) are described below.

As a reminder, the IC50 is the concentration at which inhibition is half-maximal. Read a high IC50 as weaker potency. As usually defined, the melting point is the temperature of the solid-liquid transition.

Series [1] deals with human breast cancer cell line BT-474. Kind of series: In vitro inhibition of growth of breast cancer cell BT-474. It counts as cell-based. As to conditions: 120 h, BT-474 cells, heregulin, cultured for 5 days, SRB staining. Here is the method:
In vitro Inhibition of Growth of Breast Cancer Cell BT-474
In each well of a 96-well microtiter plate, 100 μl (containing 1,000 cells) of a cell suspension of human breast cancer cell line BT-474 was seeded and incubated at 37° C. in a 5% carbon dioxide gas incubator. On the next day, 100 μl of the 2-fold serial dilution of a solution of each test compound prepared by using 250 μl of a heregulin solution, which was adjusted so as to be the final concentration of 0.8 μg/mL, was added to each well and cultured for 5 days. The solution containing the test compound was removed and the cells were washed and fixed with a 50% trichloroacetic acid solution. To the cells was added a 0.4% (W/V) solution of pigment SRB (dissolved in 1% acetic acid) to fix as well as stain the cell protein (Skehan P. et al., Journal of the National Cancer Institute Vol. 82, pp. 1107-1112, 1990). The pigment solution was removed and the remainder was washed with a 1% acetic acid solution. Then, 100 μl of an extracting solution (10 mM Tris buffer) was added thereto to extract the pigment. The optical density of the extract at the wavelength of 550 nm was measured to determine the amount of the cells in terms of the amount of the protein. The proportion of the amount of remaining protein of each treated group was determined by taking the amount of protein of the control to which no solution of a test compound was added as 100% to calculate the value of the concentration of the compound required for inhibiting the remaining cells by 50% of that of the control (IC50)
In general terms: Sulforhodamine B stains cellular protein and so reports cell mass.

Series [2] deals with Human breast cancer cell line BT-474. Nature of the series: In vivo breast cancer inhibiting effect (BT-474 implanted in nude mice). As to conditions: nude mice with BT-474 tumors, orally twice daily 30 mg/kg body weight for 10 days. On the procedure: In Vivo Breast Cancer Inhibiting Effect
Human breast cancer cell line BT-474 (5,000,000 cells) were suspended in a gel-matrix solution. The suspension was subcutaneously implanted in the breast of 6-week-old female Balb/C strain nude mice (Friedman R. et al., Proceedings of the National Academy of Sciences of the U.S.A. Vol. 87, pp. 6698-6702, 1990). At the time of the implantation and seven days after the implantation, an estradiol dipropionate solution (5 mg/mL) was intramuscularly administered to the hind leg for the purpose of enhancing a take ratio of tumors. Fourteen days after the implantation, the diameters of tumors were determined. For the experiment were used 5 mice per group with similar tumor size. Each of compounds (4, 6, 14, 17, 19, 20, 23, 24 and 26) of the present invention was suspended in a 5% gum arabic solution (physiological saline) and administered orally twice daily in dose of 30 mg/kg body weight for 10 days. On the day when the administration was terminated, the diameters of tumors were measured. Tumor volume was calculated by the following equation.
Volume of tumor=longest diameter×shortest diameter×shortest diameter×½
The growth rate of tumors was calculated as the proportion of the value obtained by subtracting the initial volume from the final volume in the group to which the drug was administered, to the value obtained by subtracting the initial volume from the final volume in the control group to which a gum arabic solution was administered.

In series [3] the target is T1, HER2 (Homo sapiens, UniProt P04626).
T1 construct: amount of phosphorylation of HER2 tyrosine of the cells; endogenous in cells; host or cells: MCF-7 human breast cancer cell line
Kind of series: Inhibition of phosphorylation of receptor tyrosine (HER2) in human breast cancer cells MCF-7. It counts as cell-based. As to conditions: MCF-7 cells, test compound 2 hours, then heregulin 0.8 μg/mL for 5 minutes. Here is the method: Inhibition of Phosphorylation of Receptor Tyrosine in Human Breast Cancer Cells
In each well of a 24-well plate, 500 μl of the cell suspension ([…]) of human breast cancer cell line MCF-7 was seeded and incubated at 37° C. in a 5% carbon dioxide gas incubator. On the next day, 250 μl of a 4-fold serial dilution of a solution of a test compound was added to each well and, 2 hours later, 250 μl of a heregulin solution, which was adjusted so as to be the final concentration of 0.8 μg/mL, was added thereto. After 5 minutes, an extracting solution was added thereto to terminate the reaction as well as to extract a protein. The protein was fractionated by protein electrophoresis and the protein in the electrophoretic gel was transferred to a nylon filter. The filter was reacted with a phosphorylated tyrosine-specific antibody. The reaction product was fluorescence-labeled and was exposed to a photo-film. The intensity of the exposure on the photo-film was quantitated by an image-analyzing apparatus.

Series [4] is described as follows: Measurement of size of crystalline particulate (laser diffraction/scattering). It counts as physicochemical. As to conditions: distilled water as dispersion medium, SALD-2000A. Here is the method:
The average particle size can be measured by using a per se known method and a measuring equipment. The term “average particle size” refers to a volume-average particle size as measured, for example, by a laser diffraction/scattering particle size distribution measuring apparatus (for example, SALD-2000A manufactured by Shimadzu Corporation). The particle size is usually measured by uniformly dispersing a HER2 inhibitor suspension at a concentration of about 1 to 100 μg/ml at room temperature while being subjected to ultra-sonication for a short period of time such as within 1 minute, or while stirring using a vortex mixer. The aqueous solvent used in the measurement is usually water, but buffer solutions having various pH's, a pseudo-body fluid and 0.5% methyl cellulose solution may be used. […]
The size of fine particles in the suspension of the drug of crystalline particulate obtained in Example 1 was measured. […] Further, the size of particles obtained by comminuting bulk of the compound of Reference Example B4, which was used in Example 1, with a jet mill was measured in the same manner.
The size of fine particles in the suspension of the drug of crystalline particulate obtained in Example 4a was measured. […] Further, crystalline particulate obtained in Example 8a were dispersed again in distilled water and the size of fine particles of the drug was measured in the same manner.

T1 sequence (P04626 23-1255): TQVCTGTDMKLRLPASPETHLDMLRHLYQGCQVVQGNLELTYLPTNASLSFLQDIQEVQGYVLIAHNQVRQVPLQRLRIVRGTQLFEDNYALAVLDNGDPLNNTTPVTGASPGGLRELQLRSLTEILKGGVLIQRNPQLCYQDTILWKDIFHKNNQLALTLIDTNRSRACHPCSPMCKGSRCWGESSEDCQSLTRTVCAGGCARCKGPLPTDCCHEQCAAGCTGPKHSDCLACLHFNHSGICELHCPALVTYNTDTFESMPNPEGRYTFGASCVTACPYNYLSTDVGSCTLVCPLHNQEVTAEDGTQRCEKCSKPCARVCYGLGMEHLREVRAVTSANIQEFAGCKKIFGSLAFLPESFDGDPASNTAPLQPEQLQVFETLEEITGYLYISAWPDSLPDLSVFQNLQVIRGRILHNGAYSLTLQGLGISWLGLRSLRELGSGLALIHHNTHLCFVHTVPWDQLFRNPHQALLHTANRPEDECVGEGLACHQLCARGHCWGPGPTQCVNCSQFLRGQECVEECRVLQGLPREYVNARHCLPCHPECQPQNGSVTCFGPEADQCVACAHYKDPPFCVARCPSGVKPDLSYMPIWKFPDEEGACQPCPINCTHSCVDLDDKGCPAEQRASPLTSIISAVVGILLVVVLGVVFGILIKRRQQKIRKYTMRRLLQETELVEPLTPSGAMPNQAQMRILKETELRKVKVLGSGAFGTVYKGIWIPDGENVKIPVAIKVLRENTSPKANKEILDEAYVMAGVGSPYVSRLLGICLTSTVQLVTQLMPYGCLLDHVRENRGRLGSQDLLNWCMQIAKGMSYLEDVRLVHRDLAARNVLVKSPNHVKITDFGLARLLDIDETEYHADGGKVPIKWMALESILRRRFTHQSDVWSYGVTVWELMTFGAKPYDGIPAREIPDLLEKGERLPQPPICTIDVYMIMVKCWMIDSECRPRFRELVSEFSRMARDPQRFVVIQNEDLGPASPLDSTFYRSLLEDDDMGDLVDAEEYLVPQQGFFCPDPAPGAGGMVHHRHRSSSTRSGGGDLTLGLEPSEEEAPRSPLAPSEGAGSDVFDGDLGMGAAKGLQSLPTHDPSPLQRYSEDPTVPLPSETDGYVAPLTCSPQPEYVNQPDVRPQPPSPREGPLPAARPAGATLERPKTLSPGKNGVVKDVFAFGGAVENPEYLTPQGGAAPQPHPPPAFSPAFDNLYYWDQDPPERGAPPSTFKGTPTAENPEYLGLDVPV

`FC(F)(F)c1ccc(/C=C/c2nc(COc3ccc(CCCCn4ccnn4)cc3)co2)cc1` [Reference Example B4, 1-(4-{4-[(2-{(E)-2-[4-(Trifluoromethyl)phenyl]ethenyl}-1,3-oxazol-4-yl)methoxy]phenyl}butyl)-1H-1,2,3-triazole]: the 50% inhibitory concentration (IC50) in series [1] was below 0.05 µM; in series [3], 0.1 µM. The “Inhibition ratio (%)” value in series [2] amounted to 5%. For the same molecule, the figures for the “Average particle size (μm)” value in series [4] and in series [4] (listed as Reference Example 4B) were at most 4 μm and 3.85 μm, respectively.

`FC(F)(F)c1ccc(/C=C/c2nc(COc3cccc(CCCn4ccnn4)c3)co2)cc1` [Reference Example B6, 1-(3-{3-[(2-{(E)-2-[4-(Trifluoromethyl)phenyl]ethenyl}-1,3-oxazol-4-yl)methoxy]phenyl}propyl)-1H-1,2,3-triazole]: the melting point lay in the range of 115 to 116 °C. The same molecule came in with an IC50 in series [1] below 0.05 µM. Further, the “Inhibition ratio (%)” value in series [2] amounted to 28%. Also, half-maximal inhibition in series [3] (IC50) required 1.2 µM.
